From US6107549A, “Genetically engineered plant resistance to thiazopyr and other pyridine herbicides” (Monsanto Company, priority 1999, dated 2000)
Like-named read-outs stand apart in the source and are kept apart here.

How the values were obtained:
pyridine-esterase = biological target: T1, pyridine-esterase (Oryctolagus cuniculus, UniProt P12337, A196R/H30K); format: biochemical, rabbit; conditions: tobacco line #37437 extract, FIG. 4
T1 construct: made in house; host or cells: transgenic tobacco (Samson) and tomato (UC82B) plants, tissue extracts
T1 sequence (P12337 19-565 H30K/A196R): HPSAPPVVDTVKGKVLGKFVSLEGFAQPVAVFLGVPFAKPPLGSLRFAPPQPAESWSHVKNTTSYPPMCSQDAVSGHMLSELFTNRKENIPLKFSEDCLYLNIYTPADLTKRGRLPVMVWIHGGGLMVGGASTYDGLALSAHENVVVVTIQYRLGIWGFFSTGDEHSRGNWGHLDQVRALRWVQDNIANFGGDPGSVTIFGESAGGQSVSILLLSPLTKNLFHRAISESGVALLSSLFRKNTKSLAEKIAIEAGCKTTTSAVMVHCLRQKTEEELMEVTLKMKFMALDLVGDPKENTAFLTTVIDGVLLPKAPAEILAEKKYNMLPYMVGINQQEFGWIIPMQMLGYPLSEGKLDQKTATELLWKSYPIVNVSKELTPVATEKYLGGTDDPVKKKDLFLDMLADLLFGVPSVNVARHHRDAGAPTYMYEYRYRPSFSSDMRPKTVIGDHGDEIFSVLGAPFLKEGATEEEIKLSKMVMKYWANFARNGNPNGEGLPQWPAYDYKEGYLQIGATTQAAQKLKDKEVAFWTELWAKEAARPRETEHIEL
Method: (§1) Esterase activity assays. Esterase activity was measured in vitro by conversion of either [^14 C]thiazopyr or [^14 C]MON 14300 to their corresponding monoacid. Pyridine-esterase activity was assayed during protein purification and from tissue extracts of transgenic plants. The homogenizing buffer for plant tissues consisted of 100 mM Tris pH 8.0, 1 mM EDTA, 1 mM DTT, and 10% glycerol in water. Plant tissues (1 g/ml buffer) including leaves, seeds, flowers, seedlings, etc. were homogenized in conical centrifuge tubes using a spinning pestle at 4° C. Following centrifugation (12,000× g), the supernatant (250 μl) was assayed immediately for esterase activity by incubation with [^14 C]thiazopyr or [^14 C]MON 14300 (4 μg) in 0.1 M Tris pH 8.0 buffer (50 μl) at 37° C. The reaction was sampled (100 μL) at various times (0.5 to 100 hr) to generate a kinetic profile of monoacid formation. The reaction was stopped by addition of 1% trifluoroacetic acid in acetonitrile (v/v, 150 μl). Following centrifugation (12,000× g for 3 min), the supernatant was analyzed by HPLC/RAD (radioactivity detection) to resolve the monoacid from the parent herbicide and other metabolites. Control reactions in the absence of the esterase recovered un-reacted thiazopyr or MON 14300 for the duration of experiments. Esterase activity was also assayed during protein purification following a similar procedure except a single time-point (1-2 hrs) of incubation was selected within the linear range of reaction. In vitro assays also employed three commonly used calorimetric (p-nitrophenyl butyrate) or fluorescent (4-methyl umbelliferyl butyrate and 5-bromo-4-chloro-3-indolylacetate) substrates. These substrates are useful in rapidly and qualitatively detecting general esterase activity.
Tissue extracts from 3 tobacco R1 seedlings were employed for further studies. Two of the lines (#37437 and #37432) expressed high levels of esterase (~0.5%) and one line (#37436) which expressed no pyridine-esterase was used as negative control. Tissue extracts were incubated with [^14 C]MON 14300 and formation of the monoacid monitored with time. […] In comparison, less that 2% monoacid was detected in line (#37436). […] First, pyridine-esterase was capable of driving the hydrolysis reaction to completion with no apparent product inhibition, and second, there was no endogenous esterase activity in tobacco which catalyzed MON 14300 hydrolysis.

RLE3 = biological target: T2, RLE3 (Oryctolagus cuniculus, UniProt P12337, A196R/H30K); assay: Esterase activity of RLE3 cDNA expressed in insect cells; format: biochemical, rabbit; conditions: culture media from RLE3 cells; esterase inhibitor
T2 construct: 19-residue synthetic ER signal peptide (design based on the homologous rat esterase, Robbi et al. 1990; Ala added after Met) (N); made in house; host or cells: Spodoptera frugiperda SF9 cells, baculovirus
T2 sequence (P12337 with tags, fused parts or gaps H30K/A196R): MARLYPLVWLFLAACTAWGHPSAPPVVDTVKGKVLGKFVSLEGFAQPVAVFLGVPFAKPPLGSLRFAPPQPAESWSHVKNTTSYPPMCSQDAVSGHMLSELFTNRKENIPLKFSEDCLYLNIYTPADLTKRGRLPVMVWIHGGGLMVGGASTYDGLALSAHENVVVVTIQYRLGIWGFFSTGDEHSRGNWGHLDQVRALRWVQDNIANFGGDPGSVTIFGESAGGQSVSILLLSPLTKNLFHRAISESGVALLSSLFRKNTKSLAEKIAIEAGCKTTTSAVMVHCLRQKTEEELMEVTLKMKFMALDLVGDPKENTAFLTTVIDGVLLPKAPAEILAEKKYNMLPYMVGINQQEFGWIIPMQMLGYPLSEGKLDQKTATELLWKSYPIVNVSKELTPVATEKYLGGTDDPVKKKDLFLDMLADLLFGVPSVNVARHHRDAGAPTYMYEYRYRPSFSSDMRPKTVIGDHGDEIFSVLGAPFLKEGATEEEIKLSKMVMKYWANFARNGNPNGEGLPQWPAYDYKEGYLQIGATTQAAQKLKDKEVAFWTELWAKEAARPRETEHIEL
Method: as §1
Expression of RLE1 and RLE3 cDNAs in insect cells. Mature rabbit liver esterases are glycoproteins which reside in the lumen of the endoplasmic reticulum (ER) (Korza et al., 1988). […]

[1] = Feng et al., 1995b; cited from earlier work

## COC(=O)c1c(Cl)nn(C)c1S(=O)(=O)NC(=O)Nc1nc(OC)cc(OC)n1
pyridine-esterase
  hydrolysis by pyridine-esterase (substrate specificity): little to no hydrolysis
pyridine-esterase; listed as halosulfiron
  hydrolysis by pyridine-esterase (substrate specificity): not

## CSC(=O)c1c(C(F)F)nc(C(F)(F)F)c(C(=O)SC)c1CC(C)C [Dithiopyr, dithiopyr]
pyridine-esterase
  hydrolysis by pyridine-esterase (substrate specificity): not hydrolyzed

## O=[N+]([O-])c1ccc(OP(=O)(O)Oc2ccc([N+](=O)[O-])cc2)cc1 [bis(p-nitropheyl) phosphate]
RLE3
  inactivation of esterase activity: inactivated

## CC(C)Cc1c(C(=O)O)c(C(F)F)nc(C(F)(F)F)c1C1=NCCS1 [monoacid metabolite]
[1]
  herbicidal activity: virtually devoid of any herbicidal activity
